These results are taken from ChEMBL document CHEMBL5346973 (J Med Chem, 2023).

Test [1] concerns the target Nicotinic acetylcholine receptor alpha9/alpha10 (Rattus norvegicus, UniProt P43144+Q9JLB5). As to the kind of experiment: Antagonist activity at rat alpha9alpha10 nACh receptor expressed in Xenopus oocyte assessed as inhibition of acetylcholine-induced response at -70 mV holding potential by voltage-clamp based electrophysiological assay. The class given is cell-based.

Test [2] addresses Neuronal acetylcholine receptor subunit alpha-7 (Rattus norvegicus, UniProt Q05941). The test is described as follows: Antagonist activity at rat alpha7 nACh receptor expressed in Xenopus oocyte assessed as inhibition of acetylcholine-induced response at -70 mV holding potential by voltage-clamp based electrophysiological assay. The class given is cell-based.

Where a SMILES comes first, the peptide text is derived from it.

Nicotinic acetylcholine receptor alpha9/alpha10, sequence (P43144 whole entry): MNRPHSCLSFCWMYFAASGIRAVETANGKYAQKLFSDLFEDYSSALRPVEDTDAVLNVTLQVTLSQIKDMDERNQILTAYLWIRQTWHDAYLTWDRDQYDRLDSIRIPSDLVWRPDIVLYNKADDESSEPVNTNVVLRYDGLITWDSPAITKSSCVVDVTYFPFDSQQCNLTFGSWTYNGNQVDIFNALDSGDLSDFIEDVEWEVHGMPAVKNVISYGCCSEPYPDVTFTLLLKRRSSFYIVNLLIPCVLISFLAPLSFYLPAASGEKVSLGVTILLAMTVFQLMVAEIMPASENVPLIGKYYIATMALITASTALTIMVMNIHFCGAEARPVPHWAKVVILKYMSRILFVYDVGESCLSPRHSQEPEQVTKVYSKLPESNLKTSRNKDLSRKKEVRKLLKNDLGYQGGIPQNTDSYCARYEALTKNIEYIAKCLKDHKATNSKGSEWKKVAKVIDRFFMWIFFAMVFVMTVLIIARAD
Nicotinic acetylcholine receptor alpha9/alpha10, sequence (Q9JLB5 whole entry): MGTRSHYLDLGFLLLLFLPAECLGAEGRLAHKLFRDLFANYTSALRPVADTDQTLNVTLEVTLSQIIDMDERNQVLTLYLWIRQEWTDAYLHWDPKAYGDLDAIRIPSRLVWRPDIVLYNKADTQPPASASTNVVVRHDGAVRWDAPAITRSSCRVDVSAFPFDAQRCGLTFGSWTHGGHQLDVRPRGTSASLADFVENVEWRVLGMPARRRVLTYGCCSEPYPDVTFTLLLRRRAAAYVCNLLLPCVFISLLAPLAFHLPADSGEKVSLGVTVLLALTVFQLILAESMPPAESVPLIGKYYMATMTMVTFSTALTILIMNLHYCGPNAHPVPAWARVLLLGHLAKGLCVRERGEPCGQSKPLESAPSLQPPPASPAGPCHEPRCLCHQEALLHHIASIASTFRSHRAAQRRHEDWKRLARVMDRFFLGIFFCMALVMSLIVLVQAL
Neuronal acetylcholine receptor subunit alpha-7, sequence (Q05941 whole entry): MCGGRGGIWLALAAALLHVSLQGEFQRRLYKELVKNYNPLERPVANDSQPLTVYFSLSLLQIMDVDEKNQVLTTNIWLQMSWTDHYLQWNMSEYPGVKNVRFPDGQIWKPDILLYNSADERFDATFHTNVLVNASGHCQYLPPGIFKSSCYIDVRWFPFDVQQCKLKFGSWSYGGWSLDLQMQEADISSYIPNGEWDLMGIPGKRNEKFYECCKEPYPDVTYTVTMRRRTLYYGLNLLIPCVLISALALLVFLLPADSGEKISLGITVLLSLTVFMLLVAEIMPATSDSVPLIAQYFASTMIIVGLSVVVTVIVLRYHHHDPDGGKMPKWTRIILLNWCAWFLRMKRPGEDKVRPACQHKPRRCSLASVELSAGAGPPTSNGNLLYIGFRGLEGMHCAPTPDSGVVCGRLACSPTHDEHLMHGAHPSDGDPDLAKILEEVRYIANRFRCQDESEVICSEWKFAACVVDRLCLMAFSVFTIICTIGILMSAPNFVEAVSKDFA

`CC[C@H](C)[C@@H]1NC(=O)[C@H](CCCNC(=N)N)NC(=O)[C@H](CCCNC(=N)N)NC(=O)[C@@H]2CSSC[C@H](NC(=O)[C@H](Cc3ccc(O)cc3)NC(=O)[C@H](CCCNC(=N)N)NC(=O)[C@H](C)NC(=O)[C@H](CO)NC(=O)[C@H](CO)NC(=O)[C@H](CCCNC(=N)N)NC(=O)[C@@H](NC(=O)[C@@H](N)[C@@H](C)O)CSSC[C@@H](C(=O)N[C@H](C(=O)O)C(C)C)NC(=O)[C@H](C)NC(=O)[C@H](CC(=O)O)NC(=O)[C@H]([C@@H](C)O)NC1=O)C(=O)N[C@@H](CCCNC(=N)N)C(=O)N[C@@H](CO)C(=O)N1CCC[C@H]1C(=O)N[C@@H](Cc1ccc(O)cc1)C(=O)N[C@@H](CC(=O)O)C(=O)N[C@@H](CCCNC(=N)N)C(=O)N[C@@H](CCCNC(=N)N)C(=O)N[C@@H](CCCNC(=N)N)C(=O)N[C@@H](CCCNC(=N)N)C(=O)N[C@@H](Cc1ccc(O)cc1)C(=O)N2` (HELM PEPTIDE1{T.C.R.S.S.A.R.Y.C.R.S.P.Y.D.R.R.R.R.Y.C.R.R.I.T.D.A.C.V}$PEPTIDE1,PEPTIDE1,2:R3-27:R3|PEPTIDE1,PEPTIDE1,9:R3-20:R3$$$V2.0): the IC50 in test [1] stood at 17 nM; in test [2], 5720 nM.

With `CC[C@H](C)[C@@H]1NC(=O)[C@H](CCCNC(=N)N)NC(=O)[C@H](CCCNC(=N)N)NC(=O)[C@@H]2CSSC[C@H](NC(=O)[C@H](Cc3ccc(O)cc3)NC(=O)[C@H](CCCNC(=N)N)NC(=O)CNC(=O)[C@H](CO)NC(=O)[C@H](CO)NC(=O)[C@H](CCCNC(=N)N)NC(=O)[C@@H](NC(=O)[C@@H](N)[C@@H](C)O)CSSC[C@@H](C(=O)N[C@H](C(=O)O)C(C)C)NC(=O)[C@H](C)NC(=O)[C@H](CC(=O)O)NC(=O)[C@H]([C@@H](C)O)NC1=O)C(=O)N[C@@H](CCCNC(=N)N)C(=O)N[C@@H](CO)C(=O)N1CCC[C@H]1C(=O)N[C@@H](Cc1ccc(O)cc1)C(=O)N[C@@H](CC(=O)O)C(=O)N[C@@H](CCCNC(=N)N)C(=O)N[C@@H](CCCNC(=N)N)C(=O)N[C@@H](C)C(=O)N[C@@H](CCCNC(=N)N)C(=O)N[C@@H](Cc1ccc(O)cc1)C(=O)N2`, the IC50 in test [1] was 58 nM; in test [2], greater than 10000 nM.

`CC[C@H](C)[C@@H]1NC(=O)[C@H](C)NC(=O)[C@H](CCCNC(=N)N)NC(=O)[C@@H](NC(=O)[C@H](Cc2ccc(O)cc2)NC(=O)[C@H](CCCNC(=N)N)NC(=O)[C@H](CCCNC(=N)N)NC(=O)[C@H](CCCNC(=N)N)NC(=O)[C@H](CCCNC(=N)N)NC(=O)[C@H](CC(=O)O)NC(=O)[C@H](Cc2ccc(O)cc2)NC(=O)[C@@H]2CCCN2C(=O)[C@H](CO)NC(=O)[C@H](CCCNC(=N)N)NC(=O)[C@@H]2CSSC[C@H](NC(=O)[C@@H](N)[C@@H](C)O)C(=O)N[C@@H](CCCNC(=N)N)C(=O)N[C@@H](CO)C(=O)N[C@@H](CO)C(=O)NCC(=O)N[C@@H](CCCNC(=N)N)C(=O)N[C@@H](Cc3ccc(O)cc3)C(=O)N2)CSSC[C@@H](C(=O)N[C@H](C(=O)O)C(C)C)NC(=O)[C@H](C)NC(=O)[C@H](CC(=O)O)NC(=O)[C@H]([C@@H](C)O)NC1=O`: the IC50 amounted to 54 nM in test [1] and 600 nM in test [2].

Consider `CC[C@H](C)[C@@H]1NC(=O)[C@H](CCCNC(=N)N)NC(=O)[C@H](CCCNC(=N)N)NC(=O)[C@@H](NC(=O)[C@H](Cc2ccc(O)cc2)NC(=O)[C@H](CCCNC(=N)N)NC(=O)[C@H](CCCNC(=N)N)NC(=O)[C@H](CCCNC(=N)N)NC(=O)[C@H](CCCNC(=N)N)NC(=O)[C@H](C)NC(=O)[C@H](Cc2ccc(O)cc2)NC(=O)[C@@H]2CCCN2C(=O)[C@H](CO)NC(=O)[C@H](CCCNC(=N)N)NC(=O)[C@@H]2CSSC[C@H](NC(=O)[C@@H](N)[C@@H](C)O)C(=O)N[C@@H](CCCNC(=N)N)C(=O)N[C@@H](CO)C(=O)N[C@@H](CO)C(=O)NCC(=O)N[C@@H](CCCNC(=N)N)C(=O)N[C@@H](Cc3ccc(O)cc3)C(=O)N2)CSSC[C@@H](C(=O)N[C@H](C(=O)O)C(C)C)NC(=O)[C@H](C)NC(=O)[C@H](CC(=O)O)NC(=O)[C@H]([C@@H](C)O)NC1=O` (HELM PEPTIDE1{T.C.R.S.S.G.R.Y.C.R.S.P.Y.A.R.R.R.R.Y.C.R.R.I.T.D.A.C.V}$PEPTIDE1,PEPTIDE1,2:R3-9:R3|PEPTIDE1,PEPTIDE1,20:R3-27:R3$$$V2.0), for which the half-inhibitory concentration (IC50) in test [1] was found to be 15 nM; in test [2], 3080 nM.

Turning to `CC[C@H](C)[C@@H]1NC(=O)[C@H](CCCNC(=N)N)NC(=O)[C@H](CCCNC(=N)N)NC(=O)[C@@H]2CSSC[C@H](NC(=O)[C@H](Cc3ccc(O)cc3)NC(=O)[C@H](CCCNC(=N)N)NC(=O)CNC(=O)[C@H](CO)NC(=O)[C@H](CO)NC(=O)[C@H](CCCNC(=N)N)NC(=O)[C@@H](NC(=O)[C@@H](N)[C@@H](C)O)CSSC[C@@H](C(=O)N[C@H](C(=O)O)C(C)C)NC(=O)[C@H](C)NC(=O)[C@H](CC(=O)O)NC(=O)[C@H]([C@@H](C)O)NC1=O)C(=O)N[C@@H](C)C(=O)N[C@@H](CO)C(=O)N1CCC[C@H]1C(=O)N[C@@H](Cc1ccc(O)cc1)C(=O)N[C@@H](CC(=O)O)C(=O)N[C@@H](CCCNC(=N)N)C(=O)N[C@@H](CCCNC(=N)N)C(=O)N[C@@H](CCCNC(=N)N)C(=O)N[C@@H](CCCNC(=N)N)C(=O)N[C@@H](Cc1ccc(O)cc1)C(=O)N2` (HELM PEPTIDE1{T.C.R.S.S.G.R.Y.C.A.S.P.Y.D.R.R.R.R.Y.C.R.R.I.T.D.A.C.V}$PEPTIDE1,PEPTIDE1,2:R3-27:R3|PEPTIDE1,PEPTIDE1,9:R3-20:R3$$$V2.0), the IC50 came to 35 nM in test [1] and 8760 nM in test [2].

On to `CC[C@H](C)[C@@H]1NC(=O)[C@H](CCCNC(=N)N)NC(=O)[C@H](CCCNC(=N)N)NC(=O)[C@@H](NC(=O)[C@H](Cc2ccc(O)cc2)NC(=O)[C@H](CCCNC(=N)N)NC(=O)[C@H](CCCNC(=N)N)NC(=O)[C@H](CCCNC(=N)N)NC(=O)[C@H](CCCNC(=N)N)NC(=O)[C@H](CC(=O)O)NC(=O)[C@H](Cc2ccc(O)cc2)NC(=O)[C@@H]2CCCN2C(=O)[C@H](CO)NC(=O)[C@H](CCCNC(=N)N)NC(=O)[C@@H]2CSSC[C@H](NC(=O)[C@@H](N)[C@@H](C)O)C(=O)N[C@@H](CCCNC(=N)N)C(=O)N[C@@H](CO)C(=O)N[C@@H](CO)C(=O)N[C@@H](C)C(=O)N[C@@H](CCCNC(=N)N)C(=O)N[C@@H](Cc3ccc(O)cc3)C(=O)N2)CSSC[C@H](C(=O)N[C@H](C(=O)O)C(C)C)NC(=O)[C@H](C)NC(=O)[C@H](CC(=O)O)NC(=O)[C@H]([C@@H](C)O)NC1=O`, for which the IC50 in test [1] was found to be 4.5 nM; in test [2], 1460 nM.

For the compound `CC[C@H](C)[C@@H]1NC(=O)[C@H](CCCNC(=N)N)NC(=O)[C@H](C)NC(=O)[C@@H](NC(=O)[C@H](Cc2ccc(O)cc2)NC(=O)[C@H](CCCNC(=N)N)NC(=O)[C@H](CCCNC(=N)N)NC(=O)[C@H](CCCNC(=N)N)NC(=O)[C@H](CCCNC(=N)N)NC(=O)[C@H](CC(=O)O)NC(=O)[C@H](Cc2ccc(O)cc2)NC(=O)[C@@H]2CCCN2C(=O)[C@H](CO)NC(=O)[C@H](CCCNC(=N)N)NC(=O)[C@@H]2CSSC[C@H](NC(=O)[C@@H](N)[C@@H](C)O)C(=O)N[C@@H](CCCNC(=N)N)C(=O)N[C@@H](CO)C(=O)N[C@@H](CO)C(=O)NCC(=O)N[C@@H](CCCNC(=N)N)C(=O)N[C@@H](Cc3ccc(O)cc3)C(=O)N2)CSSC[C@@H](C(=O)N[C@H](C(=O)O)C(C)C)NC(=O)[C@H](C)NC(=O)[C@H](CC(=O)O)NC(=O)[C@H]([C@@H](C)O)NC1=O`, the results for the IC50 in test [1] and in test [2] were 14 nM and 5610 nM, respectively.

Turning to `CC[C@H](C)[C@@H]1NC(=O)[C@H](CCCNC(=N)N)NC(=O)[C@H](CCCNC(=N)N)NC(=O)[C@@H](NC(=O)[C@H](Cc2ccc(O)cc2)NC(=O)[C@H](CCCNC(=N)N)NC(=O)[C@H](CCCNC(=N)N)NC(=O)[C@H](CCCNC(=N)N)NC(=O)[C@H](CCCNC(=N)N)NC(=O)[C@H](CC(=O)O)NC(=O)[C@H](Cc2ccc(O)cc2)NC(=O)[C@@H]2CCCN2C(=O)[C@H](CO)NC(=O)[C@H](CCCNC(=N)N)NC(=O)[C@@H]2CSSC[C@H](NC(=O)[C@@H](N)[C@@H](C)O)C(=O)N[C@@H](CCCNC(=N)N)C(=O)N[C@@H](CO)C(=O)N[C@@H](C)C(=O)NCC(=O)N[C@@H](CCCNC(=N)N)C(=O)N[C@@H](Cc3ccc(O)cc3)C(=O)N2)CSSC[C@@H](C(=O)N[C@H](C(=O)O)C(C)C)NC(=O)[C@H](C)NC(=O)[C@H](CC(=O)O)NC(=O)[C@H]([C@@H](C)O)NC1=O` (HELM PEPTIDE1{T.C.R.S.A.G.R.Y.C.R.S.P.Y.D.R.R.R.R.Y.C.R.R.I.T.D.A.C.V}$PEPTIDE1,PEPTIDE1,2:R3-9:R3|PEPTIDE1,PEPTIDE1,20:R3-27:R3$$$V2.0), the values for the IC50 in test [1] and in test [2] were 27 nM and 1450 nM, respectively.

Consider `CC[C@H](C)[C@@H]1NC(=O)[C@H](CCCNC(=N)N)NC(=O)[C@H](CCCNC(=N)N)NC(=O)[C@@H]2CSSC[C@H](NC(=O)[C@H](Cc3ccc(O)cc3)NC(=O)[C@H](CCCNC(=N)N)NC(=O)CNC(=O)[C@H](CO)NC(=O)[C@H](CO)NC(=O)[C@H](CCCNC(=N)N)NC(=O)[C@@H](NC(=O)[C@@H](N)[C@@H](C)O)CSSC[C@@H](C(=O)N[C@H](C(=O)O)C(C)C)NC(=O)[C@H](C)NC(=O)[C@H](CC(=O)O)NC(=O)[C@H]([C@@H](C)O)NC1=O)C(=O)N[C@@H](CCCNC(=N)N)C(=O)N[C@@H](CO)C(=O)N1CCC[C@H]1C(=O)N[C@@H](Cc1ccc(O)cc1)C(=O)N[C@@H](CC(=O)O)C(=O)N[C@@H](CCCNC(=N)N)C(=O)N[C@@H](CCCNC(=N)N)C(=O)N[C@@H](CCCNC(=N)N)C(=O)N[C@@H](CCCNC(=N)N)C(=O)N[C@@H](C)C(=O)N2`, for which the figures for the IC50 in test [1] and in test [2] were 38 nM and 7640 nM, respectively.

For `CC[C@H](C)[C@@H]1NC(=O)[C@H](CCCNC(=N)N)NC(=O)[C@H](CCCNC(=N)N)NC(=O)[C@@H]2CSSC[C@H](NC(=O)[C@H](Cc3ccc(O)cc3)NC(=O)[C@H](CCCNC(=N)N)NC(=O)CNC(=O)[C@H](CO)NC(=O)[C@H](CO)NC(=O)[C@H](CCCNC(=N)N)NC(=O)[C@@H](NC(=O)[C@H](C)N)CSSC[C@@H](C(=O)N[C@H](C(=O)O)C(C)C)NC(=O)[C@H](C)NC(=O)[C@H](C)NC(=O)[C@H]([C@@H](C)O)NC1=O)C(=O)N[C@@H](CCCNC(=N)N)C(=O)N[C@@H](CO)C(=O)N1CCC[C@H]1C(=O)N[C@@H](Cc1ccc(O)cc1)C(=O)N[C@@H](CC(=O)O)C(=O)N[C@@H](CCCNC(=N)N)C(=O)N[C@@H](CCCNC(=N)N)C(=O)N[C@@H](CCCNC(=N)N)C(=O)N[C@@H](CCCNC(=N)N)C(=O)N[C@@H](Cc1ccc(O)cc1)C(=O)N2`, the IC50 in test [1] was found to be 27 nM; in test [2], 5890 nM.

One may read the IC50 as the point on the concentration scale where inhibition reaches its midpoint.
